Laboratory results: US11304934B2, “Use of isoxazoline derivatives for the treatment or prevention of arthropod infestations in poultry” (Intervet Inc., priority 2013, dated 2022)

Assays:
[1] = test system: Dermanyssus gallinae; assay: Efficacy of fluralaner via medicated drinking water against artificially induced poultry red mite infestations of laying hens; assay type: in vivo; details: for % Inhibition of mites 24 hours after infestation / % Mortality of mites 24 hours after infestation: laying hens
Method: (§1) Groups A-D (n=6) were treated with doses of 2, 1 and 0.5 mg fluralaner/kg BW once or 1 mg fluralaner/kg BW split dose (0.5 mg/kg BW on 2 occasions).
Drinking water consumption in each was measured on three days prior to administration to calculate the average daily water consumption. Medicated water was prepared by diluting a fluralaner solution (10 mg/mL) as shown in the table below to the calculated fluralaner concentration.
(§2) On D0 (group D additionally on D7), the hens in groups A-D received fluralaner via medicated drinking water. Group E received un-medicated drinking water ad libitum.
The dose to be administered was calculated based on average body weights of each treatment group, obtained one day before treatment (D-1, D6). A fluralaner stock solution was diluted in the drinking water to prepare medicated water ready for consumption.
The volume of medicated water offered per group on D0 (group D also on D7) was approximately 50% of the calculated mean daily water intake measured previously in the respective group in order to ensure consumption of the full dose.
Once all medicated water was consumed the other 50% volume of the mean daily water intake was supplied as tap water in the same drinker.
On Day 1, Day 5, Day 8, Day 12, D15, D19 and D22 four of six hens per group were infested with approximately 200 vital, D. gallinae mites (unfed nymphs and adults that starved before infestation for 7 days).
From each infested hen approximately 25 engorged mites were collected and incubated for approximately 24 hours. The dead, damaged and/or live mites were counted visually using a binocular.
Mites were classified as dead if no movement was determined or mites lay in a dorsal position. Mites were classified as damaged if their movement was uncoordinated.
The Mite Mortality and Mite Inhibition percentage was calculated for each treated group in comparison to a not-treated negative control group.

[2] = Tolerability of fluralaner via medicated drinking water in hens; assay type: in vivo, laying hens; details: 2, 1, 0.5 mg/kg BW once or 2 × 0.5 mg/kg BW via medicated drinking water
Method: as §1, §2

[3] = Group A, 2 mg/kg BW once (D0) via drinking water, infestation on D1
[4] = Group A, 2 mg/kg BW once (D0) via drinking water, infestation on D5
[5] = Group A, 2 mg/kg BW once (D0) via drinking water, infestation on D8
[6] = Group A, 2 mg/kg BW once (D0) via drinking water, infestation on D12
[7] = Group A, 2 mg/kg BW once (D0) via drinking water, infestation on D15
[8] = Group A, 2 mg/kg BW once (D0) via drinking water, infestation on D19
[9] = Group A, 2 mg/kg BW once (D0) via drinking water, infestation on D22
[10] = Group B, 1 mg/kg BW once (D0) via drinking water, infestation on D1
[11] = Group B, 1 mg/kg BW once (D0) via drinking water, infestation on D5
[12] = Group B, 1 mg/kg BW once (D0) via drinking water, infestation on D8
[13] = Group B, 1 mg/kg BW once (D0) via drinking water, infestation on D12
[14] = Group B, 1 mg/kg BW once (D0) via drinking water, infestation on D15
[15] = Group B, 1 mg/kg BW once (D0) via drinking water, infestation on D19
[16] = Group B, 1 mg/kg BW once (D0) via drinking water, infestation on D22
[17] = Group C, 0.5 mg/kg BW once (D0) via drinking water, infestation on D1
[18] = Group C, 0.5 mg/kg BW once (D0) via drinking water, infestation on D5
[19] = Group C, 0.5 mg/kg BW once (D0) via drinking water, infestation on D8
[20] = Group C, 0.5 mg/kg BW once (D0) via drinking water, infestation on D12
[21] = Group C, 0.5 mg/kg BW once (D0) via drinking water, infestation on D15
[22] = Group C, 0.5 mg/kg BW once (D0) via drinking water, infestation on D19
[23] = Group C, 0.5 mg/kg BW once (D0) via drinking water, infestation on D22
[24] = Group D, 1 (2 × 0.5) mg/kg BW split dose on D0 and D7 via drinking water, infestation on D1
[25] = Group D, 1 (2 × 0.5) mg/kg BW split dose on D0 and D7 via drinking water, infestation on D5
[26] = Group D, 1 (2 × 0.5) mg/kg BW split dose on D0 and D7 via drinking water, infestation on D8
[27] = Group D, 1 (2 × 0.5) mg/kg BW split dose on D0 and D7 via drinking water, infestation on D12
[28] = Group D, 1 (2 × 0.5) mg/kg BW split dose on D0 and D7 via drinking water, infestation on D15
[29] = Group D, 1 (2 × 0.5) mg/kg BW split dose on D0 and D7 via drinking water, infestation on D19
[30] = Group D, 1 (2 × 0.5) mg/kg BW split dose on D0 and D7 via drinking water, infestation on D22

Cc1cc(C2=NOC(c3cc(Cl)cc(Cl)c3)(C(F)(F)F)C2)ccc1C(=O)NCC(=O)NCC(F)(F)F (stereo not shown) [fluralaner, 4-[5-(3,5-Dichlorophenyl)-5-trifluoromethyl-4,5-dihydroisoxazol-3-yl]-2-methyl-N-[(2,2,2-trifluoro-ethylcarbamoyl)-methyl]-benzamide]
% Inhibition of mites 24 hours after infestation [1, 3]: 100%
% Mortality of mites 24 hours after infestation [1, 3]: 100%
% Inhibition of mites 24 hours after infestation [1, 4]: 100%
% Mortality of mites 24 hours after infestation [1, 4]: 100%
% Inhibition of mites 24 hours after infestation [1, 5]: 100%
% Mortality of mites 24 hours after infestation [1, 5]: 100%
% Inhibition of mites 24 hours after infestation [1, 6]: 100%
% Mortality of mites 24 hours after infestation [1, 6]: 100%
% Inhibition of mites 24 hours after infestation [1, 7]: 81%
% Mortality of mites 24 hours after infestation [1, 7]: 77%
% Inhibition of mites 24 hours after infestation [1, 8]: 14%
% Mortality of mites 24 hours after infestation [1, 8]: 1%
% Inhibition of mites 24 hours after infestation [1, 9]: 0%
% Mortality of mites 24 hours after infestation [1, 9]: 0%
% Inhibition of mites 24 hours after infestation [1, 10]: 100%
% Mortality of mites 24 hours after infestation [1, 10]: 100%
% Inhibition of mites 24 hours after infestation [1, 11]: 100%
% Mortality of mites 24 hours after infestation [1, 11]: 100%
% Inhibition of mites 24 hours after infestation [1, 12]: 100%
% Mortality of mites 24 hours after infestation [1, 12]: 100%
% Inhibition of mites 24 hours after infestation [1, 13]: 95%
% Mortality of mites 24 hours after infestation [1, 13]: 94%
% Inhibition of mites 24 hours after infestation [1, 14]: 81%
% Mortality of mites 24 hours after infestation [1, 14]: 77%
% Inhibition of mites 24 hours after infestation [1, 15]: 3%
% Mortality of mites 24 hours after infestation [1, 15]: 2%
% Inhibition of mites 24 hours after infestation [1, 16]: 0%
% Mortality of mites 24 hours after infestation [1, 16]: 0%
% Inhibition of mites 24 hours after infestation [1, 17]: 100%
% Mortality of mites 24 hours after infestation [1, 17]: 100%
% Inhibition of mites 24 hours after infestation [1, 18]: 100%
% Mortality of mites 24 hours after infestation [1, 18]: 100%
% Inhibition of mites 24 hours after infestation [1, 19]: 100%
% Mortality of mites 24 hours after infestation [1, 19]: 97%
% Inhibition of mites 24 hours after infestation [1, 20]: 75%
% Mortality of mites 24 hours after infestation [1, 20]: 55%
% Inhibition of mites 24 hours after infestation [1, 21]: 19%
% Mortality of mites 24 hours after infestation [1, 21]: 15%
% Inhibition of mites 24 hours after infestation [1, 22]: 0%
% Mortality of mites 24 hours after infestation [1, 22]: 0%
% Inhibition of mites 24 hours after infestation [1, 23]: 0%
% Mortality of mites 24 hours after infestation [1, 23]: 0%
% Inhibition of mites 24 hours after infestation [1, 24]: 100%
% Mortality of mites 24 hours after infestation [1, 24]: 100%
% Inhibition of mites 24 hours after infestation [1, 25]: 100%
% Mortality of mites 24 hours after infestation [1, 25]: 100%
% Inhibition of mites 24 hours after infestation [1, 26]: 100%
% Mortality of mites 24 hours after infestation [1, 26]: 100%
% Inhibition of mites 24 hours after infestation [1, 27]: 100%
% Mortality of mites 24 hours after infestation [1, 27]: 100%
% Inhibition of mites 24 hours after infestation [1, 28]: 99%
% Mortality of mites 24 hours after infestation [1, 28]: 98%
% Inhibition of mites 24 hours after infestation [1, 29]: 66%
% Mortality of mites 24 hours after infestation [1, 29]: 59%
% Inhibition of mites 24 hours after infestation [1, 30]: 27%
% Mortality of mites 24 hours after infestation [1, 30]: 14%
Onset of action against red mites ([1]; all administered doses, orally via drinking water): fast onset of action
Tolerability in hens [2]: well tolerated
